In publication PMC11257039, “VCP activator reverses nuclear proteostasis defects and enhances TDP-43 aggregate clearance in multisystem proteinopathy models” (The Journal of Clinical Investigation, 2024):
Where “and” joins values, the source holds several entries; their conditions need not be identical. Identical values can stand only once.

How the values were obtained:
[1] = system: WT HeLa cells expressing TDP-4FL; assay: Immunofluorescence of TDP-4FL inclusion morphology, WT HeLa; type: cell-based; details: MG132 17 h, then CHX with 5 μM UP109 4 h
Description: HeLa Cells were plated onto glass coverslips and transfected with TDP-4FL using Fugene HD for 24 hours. Cells were fixed with 4% paraformaldehyde (Electron Microscopy Sciences), permeabilized with 0.1% Triton-X (Thermo Fisher Scientific), and blocked with 2% FBS DPBS. Primary antibodies were diluted in 2% FBS DPBS. Cells were stained with 300 nM DAPI, and coverslips were mounted onto glass slides using ProLong Glass Antifade Mountant (Thermo Fisher Scientific). Confocal images were obtained using a Leica TCS SPE laser scanning confocal microscope.
(A) High power magnification immunofluorescence confocal images of HeLa cells expressing TDP-4FL stained for myc-TDP (green) Scale bar, 5 µm. […]
(C) Representative confocal microscopy immunofluorescence confocal images of HeLa cells […]
yellow represent cells that were categorized as anisosome morphology. Nuclei outline in white represent cells that were categorized as aggregate morphology. Cells with approximately more than 50% anisosome inclusions were categorized as anisosome morphology whereas cells with approximately more than 50% aggregate-like inclusions were categorized as aggregate morphology. Binucleate cells were excluded from the total counts. Scale bar, 10 µm.
(1 picture or pasted object on this page, not shown here)

[2] = system: WT HeLa cells expressing GFP-TDP-4FL; assay: Flow cytometry of GFP-TDP-4FL integrated fluorescence, WT HeLa; type: cell-based; details: for Integrated Fluorescence WT (Normalized to CHX): replicate values
Method in brief: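 Trypsinised cells resuspended in colorless DMEM with 2% FBS and analysed by flow cytometry. Integrated fluorescence taken as percent GFP-positive cells multiplied by GFP median fluorescence.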

[3] = molecular target: T1, recombinant WT VCP (Mus musculus, UniProt Q01853); assay: MESG-PNP (EnzCheck) phosphate release ATPase assay, WT VCP; type: biochemical; details: for ATPase activity v0/ET: 25 μM compound, replicate experiments
T1 construct: in the full-length recombinant VCP; His (N); made in house; host or cells: Escherichia coli BL21-CodonPlus (DE3)-RIL
T1 sequence (Q01853 whole entry): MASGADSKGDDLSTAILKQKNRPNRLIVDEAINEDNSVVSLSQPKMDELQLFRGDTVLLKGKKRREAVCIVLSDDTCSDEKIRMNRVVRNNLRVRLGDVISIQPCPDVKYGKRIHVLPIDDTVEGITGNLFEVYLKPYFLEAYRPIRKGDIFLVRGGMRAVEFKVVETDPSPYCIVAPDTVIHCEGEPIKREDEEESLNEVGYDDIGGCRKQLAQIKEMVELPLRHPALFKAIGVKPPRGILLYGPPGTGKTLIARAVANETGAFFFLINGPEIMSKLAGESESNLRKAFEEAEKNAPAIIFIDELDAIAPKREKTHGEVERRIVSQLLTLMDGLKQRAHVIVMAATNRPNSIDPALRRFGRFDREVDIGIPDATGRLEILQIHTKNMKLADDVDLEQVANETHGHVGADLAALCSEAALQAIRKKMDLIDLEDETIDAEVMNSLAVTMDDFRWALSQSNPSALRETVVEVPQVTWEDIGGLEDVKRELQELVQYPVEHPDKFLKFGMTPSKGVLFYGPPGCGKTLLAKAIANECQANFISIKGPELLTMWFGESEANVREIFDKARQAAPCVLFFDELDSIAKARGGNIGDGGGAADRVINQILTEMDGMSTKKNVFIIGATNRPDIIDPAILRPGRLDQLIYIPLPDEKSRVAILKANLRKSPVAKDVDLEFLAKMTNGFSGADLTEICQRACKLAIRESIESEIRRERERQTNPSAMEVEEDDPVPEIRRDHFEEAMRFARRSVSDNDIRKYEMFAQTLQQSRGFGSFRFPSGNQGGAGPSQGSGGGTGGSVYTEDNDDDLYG
Method in brief: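 50 nM mouse WT VCP with 25 μM compound, 2% DMSO and varied ATP at 25°C; phosphate release followed by MESG-PNP absorbance at 360 nm for over 15 min against a phosphate standard curve. Initial rates from the linear portion, fitted to a 3-parameter dose curve or to Michaelis-Menten.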

[4] = system: luciferase; assay: Luciferase counter assay: Kinase-Glo with 62.5 μM ATP without recombinant VCP; type: biochemical; details: for measured ATP consumed (nmol) without VCP: replicate values
Method in brief: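 Counter-screen with no recombinant VCP: 62.5 μM ATP and rising compound concentrations in ATPase buffer (25 mM HEPES pH 7.5, 100 mM NaCl, 10 mM MgCl2, 2% DMSO), 1 h at 25°C. Remaining ATP was read as Kinase-Glo luminescence after 20 min at room temperature; n=3, linear mixed effects model.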

[5] = molecular target: T2, A232E VCP (Mus musculus, UniProt Q01853, A232E); assay: MESG-PNP ATPase assay, recombinant A232E VCP; type: biochemical
T2 construct: in the full-length recombinant VCP; His (N); made in house; host or cells: Escherichia coli BL21-CodonPlus (DE3)-RIL
T2 sequence (Q01853 whole entry A232E): as the sequence (Q01853 whole entry) above, with A232E counted along it
Method in brief: (§1)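 Phosphate release (MESG-PNP, A360) from 50 nM recombinant mouse VCP mutant, with 25 μM compound versus 2% DMSO, at 1mM ATP. Read >15 min at 25°C, quantified against a phosphate standard curve; initial velocity from linear fit of the linear portion.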

[6] = molecular target: T3, R155H VCP (Mus musculus, UniProt Q01853, R155H); assay: MESG-PNP ATPase assay, recombinant R155H VCP; type: biochemical
T3 construct: in the full-length recombinant VCP; His (N); made in house; host or cells: Escherichia coli BL21-CodonPlus (DE3)-RIL
T3 sequence (Q01853 whole entry R155H): as the sequence (Q01853 whole entry) above, with R155H counted along it
Method in brief: as §1

[7] = molecular target: T4, R159H VCP (Mus musculus, UniProt Q01853, R159H); assay: MESG-PNP ATPase assay, recombinant R159H VCP; type: biochemical
T4 construct: in the full-length recombinant VCP; His (N); made in house; host or cells: Escherichia coli BL21-CodonPlus (DE3)-RIL
T4 sequence (Q01853 whole entry R159H): as the sequence (Q01853 whole entry) above, with R159H counted along it
Method in brief: as §1

[8] = molecular target: T1, recombinant WT VCP; assay: Kinase-Glo ATPase assay, recombinant WT VCP; type: biochemical; details: for ATP consumed: WT VCP no UN
Method in brief: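 Mouse VCP (50 nM), alone or with 50 nM UFD1/NPLOC4, was incubated 1 h at 25 °C with 62.5 μM ATP and a range of compound concentrations in HEPES pH 7.5, 100 mM NaCl, 10 mM MgCl2, 2% DMSO. Remaining ATP was read by Kinase-Glo luminescence. Dose data were fit to a 3-parameter curve; ATP-varied data were fit to Michaelis-Menten.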

[9] = 25 μM compound, 1 mM ATP, 50 nM VCP

## COCCNC(=O)NC(=O)COC(=O)c1cc([N+](=O)[O-])ccc1Sc1nc(C)cs1 [UP109]
[1]
  TDP-4FL aggregate morphology: appeared to be smaller and in some cases revert to small anisosomes
[2]; 5μM compound with CHX
  Integrated Fluorescence WT (Normalized to CHX): 1.011 and 0.958 and 1.026 and 0.960 and 0.926 and 0.822 and 0.883 and 0.671
[2]; 20μM compound with CHX
  Integrated Fluorescence WT (Normalized to CHX): 0.950 and 0.938 and 0.974 and 0.870 and 0.844 and 0.840 and 0.850 and 0.749
[2]; MG132, then CHX with 5 or 20 μM activator
  clearance of GFP-TDP-4FL aggregates (integrated fluorescence): enhances clearance of TDP-4FL inclusions
[3]; 25 μM activator
  decrease in KM compared with DMSO: more than 2 fold
  kcat (nmol Pi / nmol VCP / s) (95% CI): 0.489 (0.459, 0.520) nmol Pi / nmol VCP / s
[3]; 25 μM activator, versus DMSO
  increase in catalytic efficiency (kcat/KM): > 4 fold
  increase in kcat: 100%
[3]; [ATP] 62.5 μM
  ATPase activity v0/ET: 0.302 nmol Pi / nmol VCP / s and 0.325 nmol Pi / nmol VCP / s and 0.308 nmol Pi / nmol VCP / s
[3]; [ATP] 125 μM
  ATPase activity v0/ET: 0.374 nmol Pi / nmol VCP / s and 0.402 nmol Pi / nmol VCP / s and 0.380 nmol Pi / nmol VCP / s
[3]; [ATP] 250 μM
  ATPase activity v0/ET: 0.403 nmol Pi / nmol VCP / s and 0.414 nmol Pi / nmol VCP / s and 0.420 nmol Pi / nmol VCP / s
[3]; [ATP] 500 μM
  ATPase activity v0/ET: 0.423 nmol Pi / nmol VCP / s and 0.468 nmol Pi / nmol VCP / s and 0.467 nmol Pi / nmol VCP / s
[3]; [ATP] 1000 μM
  ATPase activity v0/ET: 0.455 nmol Pi / nmol VCP / s and 0.493 nmol Pi / nmol VCP / s and 0.498 nmol Pi / nmol VCP / s
[4]; 62.5 μM ATP, increasing concentrations of compound
  luciferase activity (measured ATP without VCP): did not inhibit luciferase activity
[4]; compound 6.25 μM
  measured ATP consumed (nmol) without VCP: 3.224 nmol and 3.481 nmol and 3.557 nmol and 3.618 nmol and 3.348 nmol and 3.306 nmol and 3.280 nmol and 3.059 nmol and 3.211 nmol and 3.590 nmol and 3.249 nmol and 3.229 nmol
[4]; compound 12.5 μM
  measured ATP consumed (nmol) without VCP: 3.275 nmol and 3.593 nmol and 3.611 nmol and 3.469 nmol and 3.221 nmol and 3.387 nmol and 3.414 nmol and 3.086 nmol and 3.141 nmol and 3.174 nmol and 3.231 nmol and 3.422 nmol
[4]; compound 25 μM
  measured ATP consumed (nmol) without VCP: 3.285 nmol and 3.476 nmol and 3.450 nmol and 3.355 nmol and 3.220 nmol and 3.354 nmol and 3.314 nmol and 3.030 nmol and 3.217 nmol and 3.388 nmol and 3.578 nmol and 3.396 nmol
[4]; compound 50 μM
  measured ATP consumed (nmol) without VCP: 3.335 nmol and 3.348 nmol and 3.307 nmol and 3.386 nmol and 3.228 nmol and 2.949 nmol and 3.054 nmol and 3.211 nmol and 3.367 nmol and 3.287 nmol and 3.322 nmol
[4]; compound 100 μM
  measured ATP consumed (nmol) without VCP: 3.258 nmol and 3.303 nmol and 3.325 nmol and 3.212 nmol and 3.287 nmol and 3.191 nmol and 3.396 nmol and 3.257 nmol and 3.381 nmol and 3.296 nmol
[4]; compound 200 μM
  measured ATP consumed (nmol) without VCP: 3.338 nmol and 3.532 nmol and 3.360 nmol and 3.185 nmol and 3.242 nmol and 2.772 nmol and 3.166 nmol and 3.261 nmol and 3.507 nmol and 3.171 nmol and 3.672 nmol
[5]; [9]
  ATPase activity of A232E VCP: increases ATPase activity
[5]; VCP Mutation A232E, replicate values
  ATPase activity, nmol Pi / nmol VCP / s: 1.176 nmol Pi / nmol VCP / s and 1.282 nmol Pi / nmol VCP / s and 1.456 nmol Pi / nmol VCP / s
[6]; [9]
  ATPase activity of R155H VCP: increases ATPase activity
[6]; VCP Mutation R155H, replicate values
  ATPase activity, nmol Pi / nmol VCP / s: 1.058 nmol Pi / nmol VCP / s and 1.110 nmol Pi / nmol VCP / s and 1.179 nmol Pi / nmol VCP / s
[7]; [9]
  ATPase activity of R159H VCP: increases ATPase activity
[7]; VCP Mutation R159H, replicate values
  ATPase activity, nmol Pi / nmol VCP / s: 1.124 nmol Pi / nmol VCP / s and 1.212 nmol Pi / nmol VCP / s and 1.056 nmol Pi / nmol VCP / s
[8]; EC50 (μM) (95% CI), WT VCP without UN, 50 nM VCP, 62.5 μM ATP, 2% DMSO
  EC50: 24.7 µM
[8]; 1.56 μM compound
  ATP consumed: 0.864 nmol and 1.057 nmol and 1.000 nmol
[8]; 3.13 μM compound
  ATP consumed: 1.129 nmol and 1.166 nmol and 1.237 nmol
[8]; 6.25 μM compound
  ATP consumed: 1.129 nmol and 1.374 nmol and 1.469 nmol
[8]; 12.5 μM compound
  ATP consumed: 1.453 nmol and 1.583 nmol and 1.518 nmol
[8]; 25 μM compound
  ATP consumed: 1.644 nmol and 1.860 nmol and 1.582 nmol
[8]; 50 μM compound
  ATP consumed: 1.793 nmol and 1.914 nmol and 2.036 nmol
[8]; 100 μM compound
  ATP consumed: 1.926 nmol and 2.030 nmol and 2.160 nmol
[8]; 200 μM compound
  ATP consumed: 2.051 nmol and 2.217 nmol and 2.241 nmol
[8]; in vitro validation of 106 screen hits
  recombinant WT VCP ATPase activity: significantly increased
[8]; maximum, WT VCP without UN
  increase of VCP activity: 97%
